Laboratory results: PubChem BioAssay (NCI)
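Compound exposure: 48 hours, 5 concentrations, 96-well plates. TGI marks complete inhibition of growth.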

How the values were obtained:
Assay in all cases: NCI tumour cell line growth inhibition, 48 h
EKVX NSCLC = system: EKVX NSCLC
K-562 leukemia = system: K-562 leukemia
MOLT-4 leukemia = system: MOLT-4 leukemia
NCI-H522 lung = system: NCI-H522 lung
SF-268 CNS = system: SF-268 CNS
SNB-19 CNS = system: SNB-19 CNS
TK-10 renal = system: TK-10 renal
CAKI-1 renal = system: CAKI-1 renal
SR leukemia = system: SR leukemia
T-47D breast = system: T-47D breast

Row | SMILES | TGI (EKVX NSCLC) | TGI (K-562 leukemia) | TGI (MOLT-4 leukemia) | TGI (NCI-H522 lung) | TGI (SF-268 CNS) | TGI (SNB-19 CNS) | TGI (TK-10 renal) | TGI (CAKI-1 renal) | TGI (SR leukemia) | TGI (T-47D breast)
1 | CCOC(=O)C(C)(C)Oc1ccc2c(=O)cc(-c3ccccc3)oc2c1 | 84.8 µM | 31.2 µM | 32.5 µM | 28.5 µM | 56.3 µM | 42.8 µM | > 100 µM |  |  | 
2 | C=CCC(CNC(=O)OCc1ccccc1)O[Si](C)(C)C(C)(C)C (stereo not drawn) | 74.9 µM | > 100 µM | 70.1 µM | 64.8 µM | > 100 µM | > 100 µM | > 100 µM | > 100 µM | 46.4 µM | > 100 µM
3 | O=C1/C(=C/c2ccccc2)CCc2ccc(Cl)nc21 | 38.3 µM | 6.78 µM | 5.93 µM | 10.4 µM | > 64.8 µM | 41.5 µM | 32.7 µM | 10.3 µM | 9.01 µM | 18.6 µM
4 | Cc1cccc(C(C)(C)C)c1NC(=O)/C(Cc1nc2ccc([N+](=O)[O-])cc2[nH]c1=O)=N/NC(=O)C[N+](C)(C)C | > 100 µM | > 100 µM | > 100 µM | > 100 µM | > 100 µM | > 100 µM |  | > 100 µM |  | > 100 µM
5 | CN(C(=O)C1(C(=O)C=[N+]=[N-])CC1)c1ccccc1 | > 100 µM | > 100 µM | > 100 µM | > 100 µM | > 100 µM | > 100 µM | > 100 µM |  | > 100 µM | 
6 | CNC(=O)CCC(NC(C)=O)C(=O)NC(Cc1ccc(NC(=O)CCCCC(C)=O)cc1)C(=O)NC(CCC(=O)NC)C(=O)NC (stereo not drawn) | > 100 µM | > 100 µM | > 100 µM | > 100 µM | > 100 µM | > 100 µM | > 100 µM | > 100 µM |  | > 100 µM
7 | Cc1cc2ccccc2c[n+]1CC(O)C[n+]1cc2ccccc2cc1C | > 100 µM | > 100 µM | > 100 µM | > 100 µM | > 100 µM | > 100 µM | > 100 µM | > 100 µM | > 100 µM | > 100 µM
8 | CC1(C)O[C@@H](CO)[C@H]([C@@]23OC[C@H]4OC(C)(C)OC4[C@@H]2OC(C)(C)O3)O1 (stereo partly drawn) | > 100 µM | > 100 µM | > 100 µM | > 100 µM | > 100 µM | > 100 µM |  |  | > 100 µM | > 100 µM
9 | O=C(C1=C(C(=O)c2ccccc2)SC2(S1)C(C(=O)c1ccccc1)=C(C(=O)c1ccccc1)Sc1c2ssc1=O)c1ccccc1 | > 100 µM | > 100 µM | > 100 µM | 85.5 µM | > 100 µM | 66.5 µM | > 100 µM | > 100 µM | > 100 µM | > 100 µM
10 | COc1cc2cc(C(=O)N3CC(CCl)c4c3cc(N)c3ccccc43)[nH]c2cc1OCCN(C)C (stereo not drawn) | 10.7 µM | 1.12 µM | 17.4 µM |  | 0.712 µM |  | 8.67 µM | 0.094 µM |  | 0.0394 µM
11 | O=C(CC(O)(C(F)(F)F)C(F)(F)F)C(CCCl)C(O)(C(F)(F)F)C(F)(F)F (stereo not drawn) | > 100 µM | > 100 µM | > 100 µM | > 100 µM | > 100 µM | > 100 µM | > 100 µM | 77.1 µM | > 100 µM | 78 µM
12 | CC1=CC(O)C(O)C2(C)C1CC1OC(=O)C(O)C3C(C)C(O)C4(O)OCC13C42 (stereo not drawn) | 197 µM | > 394 µM | 65.6 µM | 214 µM | 444 µM | 91.7 µM |  | 205 µM |  | 
13 | N#Cc1c(Nc2ccc(F)cc2)[n+]([O-])c2ccc(Cl)cc2[n+]1[O-] |  | 8.56 µM | 9.09 µM |  | 14.2 µM | > 100 µM | > 100 µM | 20.9 µM |  | 38.9 µM
14 | COC(=O)C(/C(=N/NC(=O)c1ccncc1)C(=O)Nc1ccccc1OC)c1nc2ccc(Cl)cc2[nH]c1=O (stereo not drawn) | > 100 µM | > 100 µM | > 100 µM | > 100 µM | > 100 µM |  | > 100 µM | > 100 µM | > 100 µM | > 100 µM
15 | Cc1cc2ccccc2n1CC(=O)NCC(C)C | > 100 µM | > 100 µM | > 100 µM | > 100 µM | > 100 µM | > 100 µM | > 100 µM | > 100 µM | > 100 µM | > 100 µM
16 | Nc1ccc2c(c1)C(=O)c1ccccc1-2 | > 100 µM | > 100 µM | 75.1 µM | > 100 µM | > 100 µM | > 100 µM | > 100 µM | > 100 µM | > 100 µM | > 100 µM
17 | CS(=O)(=O)OCCN1CCC2(CC1)SSC1(CCN(CCOS(C)(=O)=O)CC1)S2 |  | > 100 µM | > 100 µM |  | 58.1 µM | > 100 µM | 55.8 µM | 44.9 µM | 65.9 µM | 
18 | CC(NC(=O)/C(=C/c1ccccc1O)NC(=O)c1ccccc1)C(=O)O (stereo not drawn) | 88.2 µM | > 100 µM | > 100 µM | 50 µM | 32.9 µM | 55.2 µM | > 100 µM | 37.2 µM |  | > 100 µM
19 | COc1cccc(NC(=O)CSc2nnc(-c3ccc(N=Cc4ccc(Cl)cc4)cc3)o2)c1 | > 100 µM | > 100 µM | 93.3 µM | 32.9 µM | 46.3 µM | 53.2 µM | 74.3 µM |  | > 100 µM | 
20 | c1ccc(CCN2CCCCCC2)nc1 | > 100 µM | > 100 µM | > 100 µM | > 100 µM | > 100 µM | > 100 µM | > 100 µM | > 100 µM |  | > 100 µM
21 | COC(=O)[C@H](C)N1C(=O)N[C@@H](C(C)C)C1=O | > 100 µM | > 100 µM | > 100 µM | > 100 µM |  | > 100 µM | > 100 µM | > 100 µM | > 100 µM | > 100 µM
22 | NC(Cc1cc(I)c(O)c(I)c1)C(=O)O (stereo not drawn) | > 316 µM | > 500 µM | > 500 µM | 130 µM | > 500 µM | > 500 µM |  | 249 µM |  | 
23 | CCCCc1c2c(nc3c1CCc1cc4c(nc1-3)-c1nc3c(c(CCCC)c1CC4)CCC/C3=C\c1ccccc1)/C(=C/c1ccccc1)CCC2 | > 100 µM | > 100 µM | > 100 µM | > 100 µM | > 100 µM | > 100 µM | > 100 µM | > 100 µM | > 100 µM | 
